In one series the test system is sodium channel. Description: Guanidine influx assay (14C-guanidine radiotracer flux, in vitro). Format: cell-based, human or rat. Particulars: guanidine influx assay using a known cell line that expresses a sodium channel. In outline:
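Radiotracer read-out: intracellular 14C-guanidine counted after washing with guanidine-supplemented low-sodium buffer. Cells expressing human or rat channels get test agent plus aconitine activator and tracer, incubated at ambient temperature. Dilution series centred on 1 μM; IC50 by sigmoidal dose-response fit.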

The next series deals with CYP3A4 (Homo sapiens, UniProt P08684). Description: Cytochrome P450 (CYP450) Inhibition Assay, CYP3A4 (Vivid fluorescence, BOMCC substrate). To be noted: human, P450 Baculosomes (recombinant CYP3A4), probe BOMCC (Vivid substrate).

Structures are written as SMILES. Some results are limits rather than exact numbers.

Here are results for 29 compounds from US8263606B2 (Xenon Pharmaceuticals Inc., priority 2008, dated 2012).

Sequence of CYP3A4 (P08684 whole entry): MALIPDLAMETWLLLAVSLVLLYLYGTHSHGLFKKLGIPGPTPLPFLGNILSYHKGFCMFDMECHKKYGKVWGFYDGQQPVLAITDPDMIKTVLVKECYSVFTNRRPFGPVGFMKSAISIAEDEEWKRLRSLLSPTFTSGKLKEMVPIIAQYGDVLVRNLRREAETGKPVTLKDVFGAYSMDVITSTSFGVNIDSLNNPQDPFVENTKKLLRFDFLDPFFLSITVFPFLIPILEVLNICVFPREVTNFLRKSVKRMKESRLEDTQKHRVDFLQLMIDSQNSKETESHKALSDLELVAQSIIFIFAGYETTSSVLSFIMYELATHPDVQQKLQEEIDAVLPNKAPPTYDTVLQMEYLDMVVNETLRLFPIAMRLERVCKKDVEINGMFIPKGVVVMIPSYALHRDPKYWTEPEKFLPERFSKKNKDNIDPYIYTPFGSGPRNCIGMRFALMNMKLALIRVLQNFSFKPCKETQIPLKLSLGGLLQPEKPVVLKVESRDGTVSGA

Consider `CC1(C)COC(C)(CCN2C(=O)C3(COc4cc5c(cc43)OCCO5)c3ccccc32)OC1` (stereo not shown) [Example 7.28], for which the IC50 in the series with sodium channel (activity level class) lay in the range of 1 to 100 nM. The inhibition at 10 µM at CYP3A4 is above 50%.
On to `O=C1N(C[C@H]2CCCO2)c2c(F)cccc2C12COc1cc3c(cc12)CCO3` (stereo partly drawn) [Example 8.2, 7′-fluoro-1′-[(2R)-tetrahydrofuran-2-ylmethyl]-5,6-dihydrospiro[benzo[1,2-b:5,4-b′]difuran-3,3′-indol]-2′(1′H)-one], for which, in the series on sodium channel (activity level class), the IC50 was in the range of 1 to 100 nM. For the same compound, on CYP3A4, the inhibition at 10 µM is below 50%.
With `O=C1N(Cc2cncc(F)c2)c2ccccc2C12COc1cc3c(cc12)OCCO3` (stereo not shown) [Example 8.18, 1′-[(5-fluoropyridin-3-yl)methyl]-2,3-dihydrospiro[furo[2,3-g][1,4]benzodioxine-8,3′-indol]-2′(1′H)-one], the IC50 with sodium channel (activity level class) lay in the range of 1 to 100 nM. The inhibition at 10 µM on CYP3A4 is above 50%.
With `COC(=O)c1ccccc1CN1C(=O)C2(COc3cc4c(cc32)CCO4)c2ccccc21` (stereo not shown) [Example 9.14, methyl 2-[(2′-oxo-5,6-dihydrospiro[benzo[1,2-b:5,4-b′]difuran-3,3′-indol]-1′(2′H)-yl)methyl]benzoate], the IC50 in the series with sodium channel (activity level class) is 1 to 100 nM. Moreover, the inhibition at 10 µM at CYP3A4 is below 50%.
Regarding `COc1cc2c(cc1F)C1(CO2)C(=O)N(CC2CCOCC2)c2ccccc21` (stereo not shown) [Example 9.29, 5-fluoro-6-methoxy-1-(tetrahydro-2H-pyran-4-ylmethyl)spiro[1-benzofuran-3,3′-indol]-2′(1′H)-one], the half-maximal inhibitory concentration (IC50) with sodium channel (activity level class) fell in the range of 1000 to 10000 nM. Further, the inhibition at 10 µM on CYP3A4 was below 50%.
The corresponding values for `O=C1N(Cc2ccc(C(F)(F)F)o2)c2ccccc2C12COc1cc(F)c(F)cc12` (stereo not shown) [Example 9.32, 5,6-difluoro-1′-{[5-(trifluoromethyl)furan-2-yl]methyl}spiro[1-benzofuran-3,3′-indol]-2′(1′H)-one] are 1000 to 10000 nM and above 50%.
Turning to `COc1ccc2c(c1)OCC21C(=O)N(CC2CCOCC2)c2ccccc21` (stereo not shown) [Example 9.35, 6-methoxy-1′-(tetrahydro-2H-pyran-4-ylmethyl)spiro[1-benzofuran-3,3′-indol]-2′(1′H)-one], the IC50 with sodium channel (activity level class) is 100 to 1000 nM. The inhibition at 10 µM on CYP3A4 was above 50%.
For `COc1ccc2c(c1)OCC21C(=O)N(CC2CCCCO2)c2ccccc21` (stereo not shown) [Example 9.36, 6-methoxy-1′-(tetrahydro-2H-pyran-2-ylmethyl)spiro[1-benzofuran-3,3′-indol]-2′(1′H)-one], in that order: 1 to 100 nM and below 50%.
For `N#Cc1cc2c(cc1F)OCC21C(=O)N(Cc2ccccc2C(F)(F)F)c2ccccc21` (stereo not shown) [Example 9.50, 6-fluoro-2′-oxo-1′-[2-(trifluoromethyl)benzyl]-1′,2′-dihydrospiro[1-benzofuran-3,3′-indole]-5-carbonitrile], in that order: 1000 to 10000 nM and above 50%.
For `COCCOCCN1C(=O)C2(COc3cc4onc(C)c4cc32)c2ccccc21` (stereo not shown) [Example 9.54, 1′-[2-(2-methoxyethoxy)ethyl]-3-methylspiro[furo[3,2-f][1,2]benzisoxazole-5,3′-indol]-2′(1′H)-one], the IC50 in the series on sodium channel lay in the range of 100 to 1000 nM. For the same compound, on CYP3A4, the inhibition at 10 µM is below 50%.
Consider `O=C1N(Cc2ccccn2)c2ccccc2C12COc1cc(F)c(F)cc12` (stereo not shown) [Example 9.64, 5,6-difluoro-1′-(pyridin-2-ylmethyl)spiro[1-benzofuran-3,3′-indol]-2′(1′H)-one], for which, in the series on sodium channel, the IC50 lay in the range of 100 to 1000 nM. Also, on CYP3A4, the inhibition at 10 µM was below 50%.
Consider `O=C1N(CC2CCOCC2)c2ccccc2C12COc1cc(F)c(F)cc12` (stereo not shown) [Example 9.65, 5,6-difluoro-1′-(tetrahydro-2H-pyran-4-ylmethyl)spiro[1-benzofuran-3,3′-indol]-2′(1′H)-one], for which the IC50 with sodium channel was 1000 to 10000 nM. On CYP3A4, the inhibition at 10 µM was below 50%.
For `COCCOCCN1C(=O)[C@@]2(COc3cc4c(cc32)OCCO4)c2ccccc21` [Example 9.70, (8S)-1′-[2-(2-methoxyethoxy)ethyl]-2,3-dihydrospiro[furo[2,3-g][1,4]benzodioxine-8,3′-indol]-2′(1′H)-one], in that order: 1 to 100 nM and below 50%.
For the compound `COCCOCCN1C(=O)C2(COc3cc(OCCOC)ccc32)c2ccccc21` (stereo not shown) [Example 9.75, 6-(2-methoxyethoxy)-1′-[2-(2-methoxyethoxy)ethyl]spiro[1-benzofuran-3,3′-indol]-2′(1′H)-one], the IC50 in the series with sodium channel was 100 to 1000 nM. In addition, on CYP3A4, the inhibition at 10 µM was below 50%.
For `COCCOCCN1C(=O)C2(COc3ccc(OCCOC)cc32)c2ccccc21` (stereo not shown) [Example 9.76, 5-(2-methoxyethoxy)-1′-[2-(2-methoxyethoxy)ethyl]spiro[1-benzofuran-3,3′-indol]-2′(1′H)-one], in that order: 100 to 1000 nM and below 50%.
With `O=C1N(Cc2cnc(Cl)s2)c2ccccc2C12COc1cc3c(cc12)OCO3` (stereo not shown) [Example 11, 1′-[(2-chloro-1,3-thiazol-5-yl)methyl]spiro[furo[2,3-f][1,3]benzodioxole-7,3′-indol]-2′(1′H)-one], the IC50 with sodium channel was in the range of 1 to 100 nM. Further, at CYP3A4, the inhibition at 10 µM was above 50%.
For `O=C1N(CC2CCNCC2)c2ccccc2C12COc1cc3c(cc12)CCO3` (stereo not shown) [Example 11.5, 1-(piperidin-4-ylmethyl)-5,6-dihydrospiro[benzo[1,2-b:5,4-b′]difuran-3,3′-indol]-2′(1′H)-one], the IC50 with sodium channel was in the range of 1000 to 10000 nM. For the same compound, at CYP3A4, the inhibition at 10 µM is below 50%.
Turning to `CC(C)N1CCC(CN2C(=O)C3(COc4cc5c(cc43)CCO5)c3ccccc32)CC1` (stereo not shown) [Example 11.6, 1′-{[1-(1-methylethyl)piperidin-4-yl]methyl}-5,6-dihydrospiro[benzo[1,2-b:5,4-b′]difuran-3,3′-indol]-2′(1′H)-one], the IC50 in the series with sodium channel fell in the range of 1000 to 10000 nM. In addition, the inhibition at 10 µM on CYP3A4 was above 50%.
Turning to `CCN1CCC(CN2C(=O)C3(COc4cc5c(cc43)CCO5)c3ccccc32)CC1` (stereo not shown) [Example 11.8, 1-[(1-ethylpiperidin-4-yl)methyl]-5,6-dihydrospiro[benzo[1,2-b:5,4-b′]difuran-3,3′-indol]-2′(1′H)-one], the IC50 in the series on sodium channel lay in the range of 1000 to 10000 nM. For the same compound, the inhibition at 10 µM on CYP3A4 was above 50%.
Consider `O=C1N(Cc2ccc(-c3ccncc3)o2)c2ccccc2C12COc1cc3c(cc12)CCO3` (stereo not shown) [Example 11.15, 1′-[(5-pyridin-4-ylfuran-2-yl)methyl]-5,6-dihydrospiro[benzo[1,2-b:5,4-b′]difuran-3,3′-indol]-2′(1′H)-one], for which the IC50 in the series with sodium channel was in the range of 100 to 1000 nM. The inhibition at 10 µM on CYP3A4 is above 50%.
As for `O=C1N(Cc2ccc(-c3cccnc3)cc2)c2ccccc2C12COc1cc3c(cc12)CCO3` (stereo not shown) [Example 11.16, 1′-(4-pyridin-3-ylbenzyl)-5,6-dihydrospiro[benzo[1,2-b:5,4-b′]difuran-3,3′-indol]-2′(1′H)-one], the IC50 in the series with sodium channel is 100 to 1000 nM. Further, on CYP3A4, the inhibition at 10 µM is above 50%.
In the case of `O=C1N(Cc2ccc(-c3ccccc3F)cc2)c2ccccc2C12COc1cc3c(cc12)CCO3` (stereo not shown) [Example 11.17, 1′-[(2′-fluorobiphenyl-4-yl)methyl]-5,6-dihydrospiro[benzo[1,2-b:5,4-b′]difuran-3,3′-indol]-2′(1′H)-one], in the series on sodium channel, the IC50 lay in the range of 100 to 1000 nM. For the same compound, on CYP3A4, the inhibition at 10 µM was below 50%.
Regarding `O=C(O)c1ccccc1CN1C(=O)C2(COc3cc4c(cc32)CCO4)c2ccccc21` (stereo not shown) [Example 11.30, 2-[(2′-oxo-5,6-dihydrospiro[benzo[1,2-b:5,4-b′]difuran-3,3′-indol]-1′(2′H)-yl)methyl]benzoic acid], the IC50 in the series with sodium channel lay within 1000 to 10000 nM. Also, at CYP3A4, the inhibition at 10 µM is below 50%.
In the case of `O=C(O)c1ccc(CN2C(=O)C3(COc4cc5c(cc43)CCO5)c3ccccc32)cc1` (stereo not shown) [Example 11.31, 4-[(2′-oxo-5,6-dihydrospiro[benzo[1,2-b:5,4-b′]difuran-3,3′-indol]-1′(2′H)-yl)methyl]benzoic acid], in the series on sodium channel, the IC50 lay within 100 to 1000 nM. In addition, on CYP3A4, the inhibition at 10 µM is below 50%.
Consider `N#Cc1cccc2c1C1(COc3cc4c(cc31)CCO4)C(=O)N2C[C@H]1CCCO1` (stereo partly drawn) [Example 11.35, 2′-oxo-1′-[(2R)-tetrahydrofuran-2-ylmethyl]-1′,2′,5,6-tetrahydrospiro[benzo[1,2-b:5,4-b′]difuran-3,3′-indole]-4′-carbonitrile], for which the IC50 in the series with sodium channel was 100 to 1000 nM. Further, the inhibition at 10 µM at CYP3A4 is below 50%.
Regarding `CN(C)Cc1cccc2c1C1(COc3cc4c(cc31)CCO4)C(=O)N2C[C@H]1CCCO1` (stereo partly drawn) [Example 11.37, 4′-[(dimethylamino)methyl]-1′-[(2R)-tetrahydrofuran-2-ylmethyl]-5,6-dihydrospiro[benzo[1,2-b:5,4-b′]difuran-3,3′-indol]-2′(1′H)-one], the IC50 with sodium channel lay within 1000 to 10000 nM. In addition, the inhibition at 10 µM at CYP3A4 was below 50%.
Turning to `O=C1N(C[C@H]2CCCO2)c2cccc(CN3CCCC3)c2C12COc1cc3c(cc12)CCO3` (stereo partly drawn) [Example 11.38, 4′-(pyrrolidin-1-ylmethyl)-1′-[(2R)-tetrahydrofuran-2-ylmethyl]-5,6-dihydrospiro[benzo[1,2-b:5,4-b′]difuran-3,3′-indol]-2′(1′H)-one], in the series with sodium channel, the IC50 is 1000 to 10000 nM. In addition, the inhibition at 10 µM on CYP3A4 is below 50%.
In the case of `CN1CCOC(CN2C(=O)C3(COc4cc5c(cc43)CCO5)c3ccccc32)C1` (stereo not shown) [Example 11.41, 1′-[(4-methylmorpholin-2-yl)methyl]-5,6-dihydrospiro[benzo[1,2-b:5,4-b′]difuran-3,3′-indol]-2′(1′H)-one], the IC50 in the series on sodium channel lay in the range of 100 to 1000 nM. Also, the inhibition at 10 µM on CYP3A4 is above 50%.
With `CC(C)N1CCOC(CN2C(=O)C3(COc4cc5c(cc43)CCO5)c3ccccc32)C1` (stereo not shown) [Example 11.42, 1′-{[4-(1-methylethyl)morpholin-2-yl]methyl}-5,6-dihydrospiro[benzo[1,2-b:5,4-b′]difuran-3,3′-indol]-2′(1′H)-one], the IC50 in the series with sodium channel lay within 1000 to 10000 nM. In addition, at CYP3A4, the inhibition at 10 µM is above 50%.

In general, IC50 refers to the point on the concentration scale where inhibition reaches its midpoint. For orientation: inhibition means the change of the read-out against control, counted positive when it falls.
